Results published in patent US11472808B2, “Substituted pyrrolo[1,2-c]pyrimidines as hepatitis B antiviral agents” (Enanta Pharmaceuticals, Inc., priority 2019, dated 2022).

The molecules below were run on HBV (assay: HepAD38 anti-HBV assay: reduction of viral product accumulation (virion DNA qPCR, HBsAg/HBeAg ELISA)). Conditions: Hepatitis B virus, 120 h; HepAD38 cells; concentration reducing viral product accumulation by 50% relative to no drug controls; harvest five days after compound addition; read-out: HepAD38 EC50.
Type: cell-based
How it was run: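 Tetracycline-free HepAD38 cells treated 5 days with compound (1:200 DMSO dilution), or 8 days with media and compound refreshed on d2 and d5. Virion DNA quantified by qPCR; HBsAg or HBeAg by ELISA. EC50 is the concentration reducing viral product accumulation 50% versus no-drug controls.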

Row | Compound | EC50 [µM]
1 | COC(=O)N1CCN(S(=O)(=O)N[C@H]2CC3=C(c4ccn(C(F)F)n4)[C@H](c4ccc(F)cc4Cl)N=C(c4nccs4)N3C2)CC1 [Example 152] | < 0.1
2 | O=S(=O)(NCC1(O)CC1)N[C@H]1CC2=C(c3ccn(C(F)F)n3)[C@H](c3ccc(F)cc3Cl)N=C(c3nccs3)N2C1 [Example 158] | 0.1 to 0.4
3 | C[C@@H](NS(=O)(=O)N[C@H]1CC2=C(c3ccn(C(F)F)n3)[C@H](c3ccc(F)cc3Cl)N=C(c3nccs3)N2C1)c1ccccn1 [Example 159] | > 0.4
4 | C[C@H](NS(=O)(=O)N[C@H]1CC2=C(c3ccn(C(F)F)n3)[C@H](c3ccc(F)cc3Cl)N=C(c3nccs3)N2C1)c1ccccn1 [Example 160] | < 0.1
5 | O=C1NC2(CCN(S(=O)(=O)N[C@H]3CC4=C(c5ccn(C(F)F)n5)[C@H](c5ccc(F)cc5Cl)N=C(c5nccs5)N4C3)CC2)CO1 [Example 162] | < 0.1
6 | O=C1NCC2(CCN(S(=O)(=O)N[C@H]3CC4=C(c5ccn(C(F)F)n5)[C@H](c5ccc(F)cc5Cl)N=C(c5nccs5)N4C3)CC2)O1 [Example 163] | < 0.1
7 | CC(C)(C)[Si](C)(C)OCC1(F)CC2=C(c3ccn(C(F)F)n3)[C@H](c3ccc(F)cc3Cl)N=C(c3nccs3)N2C1 (stereo partly drawn) [Example 164] | > 0.4
8 | OC[C@]1(F)CC2=C(c3ccn(C(F)F)n3)[C@H](c3ccc(F)cc3Cl)N=C(c3nccs3)N2C1 [Example 165] | 0.1 to 0.4
9 | OC[C@@]1(F)CC2=C(c3ccn(C(F)F)n3)[C@H](c3ccc(F)cc3Cl)N=C(c3nccs3)N2C1 [Example 166] | 0.1 to 0.4
10 | OCC[C@]1(F)CC2=C(c3ccn(C(F)F)n3)[C@H](c3ccc(F)cc3Cl)N=C(c3nccs3)N2C1 [Example 167] | > 0.4
11 | OCC[C@@]1(F)CC2=C(c3ccn(C(F)F)n3)[C@H](c3ccc(F)cc3Cl)N=C(c3nccs3)N2C1 [Example 168] | < 0.1
12 | OCC(O)[C@]1(F)CC2=C(c3ccn(C(F)F)n3)[C@H](c3ccc(F)cc3Cl)N=C(c3nccs3)N2C1 (stereo partly drawn) [Example 169] | 0.1 to 0.4
13 | OCC(O)[C@@]1(F)CC2=C(c3ccn(C(F)F)n3)[C@H](c3ccc(F)cc3Cl)N=C(c3nccs3)N2C1 (stereo partly drawn) [Example 170] | 0.1 to 0.4
14 | C=CC1(F)CC2=C(c3ccn(C(F)F)n3)[C@H](c3ccc(F)cc3Cl)N=C(c3nccs3)N2C1 (stereo partly drawn) [Example 171] | 0.1 to 0.4
15 | CCOC(=O)/C=C/[C@]1(F)CC2=C(c3ccn(C(F)F)n3)[C@H](c3ccc(F)cc3Cl)N=C(c3nccs3)N2C1 [Example 172] | 0.1 to 0.4
16 | CCOC(=O)/C=C/[C@@]1(F)CC2=C(c3ccn(C(F)F)n3)[C@H](c3ccc(F)cc3Cl)N=C(c3nccs3)N2C1 [Example 173] | < 0.1
17 | OC/C=C/[C@]1(F)CC2=C(c3ccn(C(F)F)n3)[C@H](c3ccc(F)cc3Cl)N=C(c3nccs3)N2C1 [Example 174] | 0.1 to 0.4
18 | OC/C=C/[C@@]1(F)CC2=C(c3ccn(C(F)F)c3)[C@H](c3ccc(F)cc3Cl)N=C(c3nccs3)N2C1 [Example 175] | 0.1 to 0.4
19 | CC(O)[C@]1(F)CC2=C(c3ccn(C(F)F)n3)[C@H](c3ccc(F)cc3Cl)N=C(c3nccs3)N2C1 (stereo partly drawn) [Example 176] | < 0.1
20 | CNC(=O)OCC1(F)CC2=C(c3ccn(C(F)F)n3)[C@H](c3ccc(F)cc3Cl)N=C(c3nccs3)N2C1 (stereo partly drawn) [Example 178] | < 0.1
21 | O/N=C/[C@]1(F)CC2=C(c3ccn(C(F)F)n3)[C@H](c3ccc(F)cc3Cl)N=C(c3nccs3)N2C1 [Example 179] | > 0.4
22 | O/N=C/[C@@]1(F)CC2=C(c3ccn(C(F)F)n3)[C@H](c3ccc(F)cc3Cl)N=C(c3nccs3)N2C1 [Example 180] | > 0.4

Row | Compound | EC50 [µM]
23 | C=CC(O)C1(F)CC2=C(c3ccn(C(F)F)n3)[C@H](c3ccc(F)cc3Cl)N=C(c3nccs3)N2C1 (stereo partly drawn) [Example 181] | 0.1 to 0.4
24 | COC(=O)OC[C@]1(F)CC2=C(c3ccn(C(F)F)n3)[C@H](c3ccc(F)cc3Cl)N=C(c3nccs3)N2C1 [Example 182] | 0.1 to 0.4
25 | COC(=O)OC[C@@]1(F)CC2=C(c3ccn(C(F)F)n3)[C@H](c3ccc(F)cc3Cl)N=C(c3nccs3)N2C1 [Example 183] | 0.1 to 0.4
26 | OC(c1c[nH]nn1)C1(F)CC2=C(c3ccn(C(F)F)n3)[C@H](c3ccc(F)cc3Cl)N=C(c3nccs3)N2C1 (stereo partly drawn) [Example 184] | > 0.4
27 | COC(=O)NC[C@]1(F)CC2=C(c3ccn(C(F)F)n3)[C@H](c3ccc(F)cc3Cl)N=C(c3nccs3)N2C1 [Example 185] | 0.1 to 0.4
28 | COC(=O)NC[C@@]1(F)CC2=C(c3ccn(C(F)F)n3)[C@H](c3ccc(F)cc3Cl)N=C(c3nccs3)N2C1 [Example 186] | 0.1 to 0.4
29 | O=C(NC[C@@]1(F)CC2=C(c3ccn(C(F)F)n3)[C@H](c3ccc(F)cc3Cl)N=C(c3nccs3)N2C1)OCc1ccccc1 [Example 187] | > 0.4
30 | COC(=O)c1ccccc1S(=O)(=O)NC[C@@]1(F)CC2=C(c3ccn(C(F)F)n3)[C@H](c3ccc(F)cc3Cl)N=C(c3nccs3)N2C1 [Example 188] | > 0.4
31 | COC(=O)c1ccccc1S(=O)(=O)NC[C@]1(F)CC2=C(c3ccn(C(F)F)n3)[C@H](c3ccc(F)cc3Cl)N=C(c3nccs3)N2C1 [Example 189] | > 0.4
32 | COC(=O)c1cccc(S(=O)(=O)NCC2(F)CC3=C(c4ccn(C(F)F)n4)[C@H](c4ccc(F)cc4Cl)N=C(c4nccs4)N3C2)c1 (stereo partly drawn) [Example 190] | > 0.4
33 | COC(=O)c1ccc(S(=O)(=O)NCC2(F)CC3=C(c4ccn(C(F)F)n4)[C@H](c4ccc(F)cc4Cl)N=C(c4nccs4)N3C2)cc1 (stereo partly drawn) [Example 191] | > 0.4
34 | O=C(O)c1ccc(S(=O)(=O)NCC2(F)CC3=C(c4ccn(C(F)F)n4)[C@H](c4ccc(F)cc4Cl)N=C(c4nccs4)N3C2)cc1 (stereo partly drawn) [Example 192] | > 0.4
35 | N#CC[C@]1(F)CC2=C(c3ccn(C(F)F)n3)[C@H](c3ccc(F)cc3Cl)N=C(c3nccs3)N2C1 [Example 193] | > 0.4
36 | N#CC[C@@]1(F)CC2=C(c3ccn(C(F)F)n3)[C@H](c3ccc(F)cc3Cl)N=C(c3nccs3)N2C1 [Example 194] | 0.1 to 0.4
37 | O=S(=O)(C[C@]1(F)CC2=C(c3ccn(C(F)F)n3)[C@H](c3ccc(F)cc3Cl)N=C(c3nccs3)N2C1)c1ccccc1 [Example 195] | < 0.1
38 | O=S(=O)(C[C@@]1(F)CC2=C(c3ccn(C(F)F)n3)[C@H](c3ccc(F)cc3Cl)N=C(c3nccs3)N2C1)c1ccccc1 [Example 196] | 0.1 to 0.4
39 | CCC(=O)N[C@H]1CC2=C(c3ccn(C(F)F)n3)[C@H](c3ccc(F)cc3Cl)N=C(c3nccs3)N2C1 [Example 197] | 0.1 to 0.4
40 | COC(=O)N[C@H]1CC2=C(c3ccn(C(F)F)n3)[C@H](c3ccc(F)cc3Cl)N=C(c3nccs3)N2C1 [Example 198] | < 0.1
41 | CNC(=O)N[C@H]1CC2=C(c3ccn(C(F)F)n3)[C@H](c3ccc(F)cc3Cl)N=C(c3nccs3)N2C1 [Example 199] | 0.1 to 0.4
42 | CCOC(=O)N[C@H]1CC2=C(c3ccn(C(F)F)n3)[C@H](c3ccc(F)cc3Cl)N=C(c3nccs3)N2C1 [Example 201] | < 0.1
43 | CC(C)OC(=O)N[C@H]1CC2=C(c3ccn(C(F)F)n3)[C@H](c3ccc(F)cc3Cl)N=C(c3nccs3)N2C1 [Example 202] | < 0.1
44 | CCNC(=O)N[C@H]1CC2=C(c3ccn(C(F)F)n3)[C@H](c3ccc(F)cc3Cl)N=C(c3nccs3)N2C1 [Example 203] | < 0.1

Same assay, conditions: Hepatitis B virus, HePAD38, 120 h, read-out: HepAD38 EC50 (μM)

Row | Compound | EC50 [µM]
45 | O=C(N[C@H]1CC2=C(c3ccn(C(F)F)n3)[C@H](c3ccc(F)cc3Cl)N=C(c3nccs3)N2C1)Oc1ccccc1 [Example 200] | > 0.4
